According to patent US20260077000A1, “METABOLIC MODULATION OF INTRATUMORAL CHOLESTEROL WITH ENGINEERED BACTERIA FOR THE TREATMENT OF CANCERS” (Hong Kong Baptist University, priority 2024, published 2026):

Target: recombinant extracellular domain of EGFR (EGFR-ECD) (Homo sapiens, UniProt P00533)
Experiment: Microscale thermophoresis (MST), EGFR-ECD binding
Protocol: Recombinant human protein was labeled with a Monolith NT Protein Labeling Kit RED-NHS (Nanotemper, Munich, Germany) and diluted to 50 nM with HEPES buffer (10 mM HEPES, 150 mM NaCl, 0.05% Tween). […] Samples were incubated at room temperature for 5 minutes. The mixtures were centrifuged at 16,000×g for 5 minutes and loaded into capillaries. Microscale thermophoresis measurements were performed using a Monolith NT.115 (Nanotemper, Munich, Germany).

recombinant extracellular domain of EGFR (EGFR-ECD), sequence (P00533 25-645 limits assumed): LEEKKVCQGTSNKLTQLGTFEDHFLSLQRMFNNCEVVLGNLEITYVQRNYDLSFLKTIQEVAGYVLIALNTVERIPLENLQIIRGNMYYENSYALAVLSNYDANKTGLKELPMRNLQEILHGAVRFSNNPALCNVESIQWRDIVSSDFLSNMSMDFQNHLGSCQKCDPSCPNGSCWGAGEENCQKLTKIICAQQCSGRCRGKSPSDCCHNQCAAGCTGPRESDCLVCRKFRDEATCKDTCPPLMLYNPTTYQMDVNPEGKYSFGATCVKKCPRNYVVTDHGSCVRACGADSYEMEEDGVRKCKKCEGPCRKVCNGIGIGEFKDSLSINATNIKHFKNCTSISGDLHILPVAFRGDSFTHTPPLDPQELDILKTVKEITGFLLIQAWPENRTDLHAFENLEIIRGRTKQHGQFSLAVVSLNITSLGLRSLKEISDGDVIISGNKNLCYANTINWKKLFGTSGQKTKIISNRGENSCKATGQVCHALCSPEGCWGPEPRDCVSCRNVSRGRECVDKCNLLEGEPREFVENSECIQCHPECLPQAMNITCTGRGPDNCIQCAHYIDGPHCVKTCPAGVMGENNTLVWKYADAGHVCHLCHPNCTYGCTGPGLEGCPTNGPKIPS

Compound `CC(C)CCC[C@@H](C)[C@H]1CC[C@H]2[C@@H]3CCC4=CC(=O)CC[C@]4(C)[C@H]3CC[C@]12C` [4-C-3, 4-cholesten-3-one] has a Kd of 5.6 µM.
